± gives the expanded uncertainty stated by the source.
Columns and labels:
[1] = xn = mol fraction of the nth substance listed; settings: 101.3 kPa, Liquid, x2 = 0; for speed of sound: Frequency=3 MHz, Sing-around technique in a fixed-path interferometer; for mass density: Vibrating tube method
[2] = refractive index (Na D-line) (dimensionless); xn = mol fraction of the nth substance listed; settings: 101.3 kPa, Liquid, Standard Abbe refractometry, x2 = 0
[3] = 101.3 kPa, Liquid; for speed of sound: Frequency=3 MHz, Sing-around technique in a fixed-path interferometer; for mass density: Vibrating tube method
[4] = refractive index (Na D-line) (dimensionless); settings: 101.3 kPa, Liquid, Standard Abbe refractometry

speed of sound ([1]; 298 K) [m/s] | mass density ([1]; 298 K) [kg/m3] | speed of sound ([1]; 303 K) [m/s] | mass density ([1]; 303 K) [kg/m3] | speed of sound ([1]; 308 K) [m/s] | mass density ([1]; 308 K) [kg/m3] | refractive index ([2]; 298 K) | refractive index ([2]; 303 K) | refractive index ([2]; 308 K) | speed of sound ([3]; 298 K) [m/s] | mass density ([3]; 298 K) [kg/m3] | speed of sound ([3]; 303 K) [m/s] | mass density ([3]; 303 K) [kg/m3] | speed of sound ([3]; 308 K) [m/s] | mass density ([3]; 308 K) [kg/m3] | refractive index ([4]; 298 K) | refractive index ([4]; 303 K) | refractive index ([4]; 308 K) | Compound
1457 ± 2 | 944 ± 2 | 1437 ± 2 | 939 ± 2 | 1420 ± 2 | 935 ± 2 | 1.429 ± 0.002 | 1.427 ± 0.002 | 1.425 ± 0.002 | – | – | – | – | – | – | – | – | – | CN(C)C=O [dimethylformamide] + CCOc1ccccc1
1546 ± 2 | 1026 ± 2 | 1526 ± 2 | 1022 ± 2 | 1507 ± 2 | 1018 ± 2 | 1.467 ± 0.002 | 1.466 ± 0.002 | 1.464 ± 0.002 | – | – | – | – | – | – | – | – | – | CN1CCCC1=O [N-methylpyrrolidone] + CCOc1ccccc1
– | – | – | – | – | – | – | – | – | 1546 ± 2 | 1026 ± 2 | 1526 ± 2 | 1022 ± 2 | 1507 ± 2 | 1018 ± 2 | 1.467 ± 0.002 | 1.466 ± 0.002 | 1.464 ± 0.002 | CN1CCCC1=O [N-methylpyrrolidone]
1278 ± 2 | 882 ± 2 | 1254 ± 2 | 878 ± 2 | 1230 ± 2 | 874 ± 2 | 1.405 ± 0.002 | 1.403 ± 0.002 | 1.4 ± 0.002 | – | – | – | – | – | – | – | – | – | C1CCOC1 [tetrahydrofuran] + CCOc1ccccc1
– | – | – | – | – | – | – | – | – | 1369 ± 2 | 960 ± 2 | 1349 ± 2 | 955 ± 2 | 1329 ± 2 | 951 ± 2 | 1.505 ± 0.002 | 1.503 ± 0.002 | 1.499 ± 0.002 | CCOc1ccccc1 [ethoxybenzene]
– | – | – | – | – | – | – | – | – | 1278 ± 2 | 882 ± 2 | 1254 ± 2 | 878 ± 2 | 1230 ± 2 | 874 ± 2 | 1.405 ± 0.002 | 1.403 ± 0.002 | 1.4 ± 0.002 | C1CCOC1 [tetrahydrofuran]
– | – | – | – | – | – | – | – | – | 1457 ± 2 | 944 ± 2 | 1437 ± 2 | 939 ± 2 | 1420 ± 2 | 935 ± 2 | 1.429 ± 0.002 | 1.427 ± 0.002 | 1.425 ± 0.002 | CN(C)C=O [dimethylformamide]
